Results taken from patent US20060111259A1, “Detergent composition” (Conopco Inc, d/b/a UNILEVER, priority 2004, published 2006).

System: Staphylococcus epidermidis biofilm
Assay: In-vitro biofilm microtitre plate assay, regrowth of biofilm after 1 minute treatment (growth index, GRI)
Type: cell-based
Conditions: conclusion in words from normalised GRI of soap + clay + antibacterial combinations
Method: A biofilm based microtitre plate assay was used to determine the antibacterial efficacy of the test suspensions. The efficacy is measured in terms of an index called the growth index [GRI].
An axillary isolate of Staphylococcus epidermidis was used for all the studies. The isolate was maintained on sterile CYAgar [Blood agar base 2—42 gm.1^−1, dextrose—2 gm.1^−1, yeast extract—3 gm.1^−1, polysorbate 80—5 gm.1^−1]. 24 hrs prior to the study, the isolate was subcultured onto fresh sterile CYAgar and incubated at 37° C. […]
Standardization of biofilm in terms of its attachment to polystyrene wells was initially carried out by crystal violet staining and quantification of cell numbers. […]
A kinetic assay was performed to measure the regrowth of the biofilm in an iEMS reader using the Thermo Labsystems Ascent Software™. Readings were recorded at 37° C. for 24 hrs on an hourly basis at 620 nm.
Growth of bacteria is represented by 4 phases—lag phase, exponential phase, stationary phase and death phase. […] The cumulative effect of the antibacterial over the placebo effect can be determined by the product of the increase in the time taken to reach the mid log phase from the control, and the decrease in the cell density after 24 hrs of growth. […]

SMILES | synergistic benefit in antibacterial efficacy
O=C(Nc1ccc(Cl)cc1)Nc1ccc(Cl)c(Cl)c1 [TCC, 3,4,4′ trichlorocarbanilide] | do not provide similar synergistic benefit
Oc1cc(Cl)ccc1Oc1ccc(Cl)cc1Cl [TCN, 4,2′,4′-trichloro-2-hydroxy diphenyl ether] | do not provide similar synergistic benefit
